Laboratory results from USRE47689E1, “Compounds for treating spinal muscular atrophy” (PTC Therapeutics, Inc., priority 2011, dated 2019).
Where a name gives a salt, the structure may show the parent alone. Read-outs that look alike come from different tables or passages of the source.

Experiments:
Smn protein = Smn protein assay in cultured cells (SMN HTRF); format: cell-based, human; settings: 48 hours; for maximum fold (Fold) increase of Smn protein: SMA patient fibroblast cells, 7-point concentration data, fold increase relative to vehicle control (SMN HTRF); for EC1.5x (concentration giving 1.5-fold Smn protein increase): SMA Type 1 patient fibroblast cells (GM03813), 7-point concentration curve, SMN HTRF, concentration producing 1.5 times Smn protein vs DMSO vehicle control, read-out: EC1.5x for Smn protein expression
Method in brief: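 Smn in SMA fibroblast lysates, measured by anti-SMN HTRF after 48 h compound exposure; EC1.5x from fold change over vehicle.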

[1] = system: SMN2 minigene (full length SMN2 minigene mRNA containing SMN2 exon 7); experiment: SMN2 minigene mRNA splicing RT-qPCR assay in cultured cells; format: cell-based, human; settings: for EC (1.5-fold): Homo sapiens, HEK293-H, read-out: EC1.5x for production of full length SMN2 mRNA
Method in brief: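 Full-length SMN2 minigene mRNA (exon 7 included), minigene-specific and not endogenous SMN, quantified by RT-qPCR multiplexed with GAPDH in stably transfected HEK293H cells after 24 h compound exposure at 37° C. Abundance from efficiency-corrected Ct, normalized to GAPDH and vehicle; EC1.5x reported as star bins.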

[2] = HEK293H cells stably transfected with SMN2-A minigene, 24 hours, 7-point concentration curve, 1.5-fold relative to vehicle-treated cells

O=c1oc2cc(N3CCN4CCC[C@H]4C3)ccc2cc1-c1ccc2nccn2c1 [Compound 979, 7-[(8aS)-hexahydropyrrolo[1,2-a]pyrazin-2(1H)-yl]-3-(imidazo[1,2-a]pyridin-6-yl)-2H-chromen-2-one]
maximum fold (Fold) increase of Smn protein (Smn protein): ** (fold increase between >1.2 and ≤1.35)
EC (1.5-fold) [1, 2]: 1 to 3 µM

Cc1csc2nc(-c3cc4ccc(N5CCNCC5)cc4oc3=O)cn12.Cl.Cl.Cl [Compound 141, 3-(3-methylimidazo[2,1-b][1,3]thiazol-6-yl)-7-(piperazin-1-yl)-2H-chromen-2-one hydrochloride (1:3)]
maximum fold (Fold) increase of Smn protein (Smn protein): * (maximum fold increase of ≤1.2)
EC1.5x for production of full length SMN2 mRNA [1, 2]: ** (between >1 μM and ≤3 μM)

CCN1CCN(c2ccc3cc(-c4cn5cc(C)nc(C)c5n4)c(=O)oc3c2)C[C@H]1C [Compound 679, 3-(6,8-dimethylimidazo[1,2-a]pyrazin-2-yl)-7-[(3R)-4-ethyl-3-methylpiperazin-1-yl]-2H-chromen-2-one]
EC1.5x (concentration giving 1.5-fold Smn protein increase) (Smn protein): < 300 nM
maximum fold (Fold) increase of Smn protein (Smn protein): ***** (fold increase >1.65)
EC (1.5-fold) [1, 2]: < 0.1 µM

Cc1csc(-c2cc3ccc(N4CCNCC4)cc3oc2=O)n1 [Compound 37, 3-(4-methyl-1,3-thiazol-2-yl)-7-(piperazin-1-yl)-2H-chromen-2-one]
maximum fold (Fold) increase of Smn protein (Smn protein): ** (fold increase between >1.2 and ≤1.35)
EC (1.5-fold) ([1]; 24 h): 1 to 3 µM

CN1CCN(c2ccc3cc(-c4ccc5nccn5c4)c(=O)oc3c2)CC1 [Compound 978, 3-(imidazo[1,2-a]pyridin-6-yl)-7-(4-methylpiperazin-1-yl)-2H-chromen-2-one]
maximum fold (Fold) increase of Smn protein (Smn protein): ** (fold increase between >1.2 and ≤1.35)
EC (1.5-fold) [1, 2]: 1 to 3 µM

CCN1CCCN(c2ccc3cc(-c4cn5cc(C)ncc5n4)c(=O)oc3c2)CC1 [Compound 618, 7-(4-ethyl-1,4-diazepan-1-yl)-3-(6-methylimidazo[1,2-a]pyrazin-2-yl)-2H-chromen-2-one]
EC1.5x (concentration giving 1.5-fold Smn protein increase) (Smn protein): < 300 nM
maximum fold (Fold) increase of Smn protein (Smn protein): **** (fold increase between >1.5 and ≤1.65)
EC (1.5-fold) [1, 2]: < 0.1 µM

CC(C)c1nccc(-c2cc3ccc(N4CCNCC4)cc3oc2=O)n1.Cl [Compound 279, 7-(piperazin-1-yl)-3-[2-(propan-2-yl)pyrimidin-4-yl]-2H-chromen-2-one hydrochloride]
maximum fold (Fold) increase of Smn protein (Smn protein): * (maximum fold increase of ≤1.2)
EC (1.5-fold) [1, 2]: 1 to 3 µM

Cl.O=c1oc2cc(C3CCNCC3)ccc2cc1-c1nc2c(Cl)cccc2s1 [Cpd 18, 3-(4-chloro-1,3-benzothiazol-2-yl)-7-(piperidin-4-yl)-2H-chromen-2-one hydrochloride]
maximum fold (Fold) increase of Smn protein (Smn protein): * (maximum fold increase of ≤1.2)
EC (1.5-fold) [1, 2]: 0.3 to 1 µM

Cc1cn2cc(-c3cc4ccc(O[C@@H]5CCNC5)cc4oc3=O)nc2c(C)n1 [Compound 601, 3-(6,8-dimethylimidazo[1,2-a]pyrazin-2-yl)-7-[(3R)-pyrrolidin-3-yloxy]-2H-chromen-2-one]
EC1.5x (concentration giving 1.5-fold Smn protein increase) (Smn protein): < 300 nM
maximum fold (Fold) increase of Smn protein (Smn protein): ***** (fold increase >1.65)
EC (1.5-fold) [1, 2]: < 0.1 µM

Cc1cn2cc(-c3cc4ccc(N5CCN(CCO)[C@@H](C)C5)cc4oc3=O)nc2c(C)n1 [Compound 888, 3-(6,8-dimethylimidazo[1,2-a]pyrazin-2-yl)-7-[(3S)-4-(2-hydroxyethyl)-3-methylpiperazin-1-yl]-2H-chromen-2-one]
EC1.5x (concentration giving 1.5-fold Smn protein increase) (Smn protein): < 300 nM
maximum fold (Fold) increase of Smn protein (Smn protein): ***** (fold increase >1.65)
EC (1.5-fold) [1, 2]: < 0.1 µM

O=c1oc2cc(N3CCNCC3)ccc2cc1-c1nc2ncccc2o1 [Compound 110, 3-([1,3]oxazolo[4,5-b]pyridin-2-yl)-7-(piperazin-1-yl)-2H-chromen-2-one hydrochloride]
maximum fold (Fold) increase of Smn protein (Smn protein): ** (fold increase between >1.2 and ≤1.35)
EC (1.5-fold) [1, 2]: 3 to 30 µM

CCN1CCN(c2ccc3cc(-c4cn5cc(C)nc(C)c5n4)c(=O)oc3c2)CC1C (stereo not shown) [Compound 852, 3-(6,8-dimethylimidazo[1,2-a]pyrazin-2-yl)-7-(4-ethyl-3-methylpiperazin-1-yl)-2H-chromen-2-one]
EC1.5x (concentration giving 1.5-fold Smn protein increase) (Smn protein): < 300 nM
maximum fold (Fold) increase of Smn protein (Smn protein): **** (fold increase between >1.5 and ≤1.65)
EC (1.5-fold) [1, 2]: < 0.1 µM

CC(C)(C)OC(=O)N[C@H]1CCN(c2ccc3cc(-c4cn5cc(Cl)ccc5n4)c(=O)oc3c2)C1 [Compound 106, tert-butyl {(3S)-1-[3-(6-chloroimidazo[1,2-a]pyridin-2-yl)-2-oxo-2H-chromen-7-yl]pyrrolidin-3-yl}carbamate]
maximum fold (Fold) increase of Smn protein (Smn protein): * (maximum fold increase of ≤1.2)
EC (1.5-fold) [1, 2]: 3 to 30 µM

Cc1cn2cc(-c3cc4ccc(N5CCN[C@H](C)C5)cc4oc3=O)cnc2n1 [Compound 650, 3-(2-methylimidazo[1,2-a]pyrimidin-6-yl)-7-[(3R)-3-methylpiperazin-1-yl]-2H-chromen-2-one]
EC1.5x (concentration giving 1.5-fold Smn protein increase) (Smn protein): 300 to 1000 nM
maximum fold (Fold) increase of Smn protein (Smn protein): **** (fold increase between >1.5 and ≤1.65)
EC (1.5-fold) [1, 2]: < 0.1 µM

Cc1cn2cc(-c3cc4ccc(N5C[C@@H]6CCCN(C)[C@@H]6C5)cc4oc3=O)nc2c(C)n1 [Compound 795, 3-(6,8-dimethylimidazo[1,2-a]pyrazin-2-yl)-7-[(4aS,7aS)-1-methyloctahydro-6H-pyrrolo[3,4-b]pyridin-6-yl]-2H-chromen-2-one]
EC1.5x (concentration giving 1.5-fold Smn protein increase) (Smn protein): < 300 nM
maximum fold (Fold) increase of Smn protein (Smn protein): **** (fold increase between >1.5 and ≤1.65)
EC (1.5-fold) [1, 2]: < 0.1 µM

COc1ccc(-c2cc3ccc(N4CCN(C)CC4)cc3oc2=O)cc1OC [Compound 317, 3-(3,4-dimethoxyphenyl)-7-(4-methylpiperazin-1-yl)-2H-chromen-2-one]
maximum fold (Fold) increase of Smn protein (Smn protein): * (maximum fold increase of ≤1.2)
EC (1.5-fold) [1, 2]: 3 to 30 µM

Cc1cn2cc(-c3cc4ccc(N5CCN(C)CC5)cc4oc3=O)cc(F)c2n1 [Compound 982, 3-(8-fluoro-2-methylimidazo[1,2-a]pyridin-6-yl)-7-(4-methylpiperazin-1-yl)-2H-chromen-2-one]
EC1.5x (concentration giving 1.5-fold Smn protein increase) (Smn protein): < 300 nM
maximum fold (Fold) increase of Smn protein (Smn protein): ***** (fold increase >1.65)
EC (1.5-fold) [1, 2]: < 0.1 µM

COc1ccc(-c2cc3ccc(N4CCNC[C@@H]4C)cc3oc2=O)cc1OC [Compound 472, 3-(3,4-dimethoxyphenyl)-7-[(2S)-2-methylpiperazin-1-yl]-2H-chromen-2-one]
maximum fold (Fold) increase of Smn protein (Smn protein): * (maximum fold increase of ≤1.2)
EC (1.5-fold) [1, 2]: 1 to 3 µM

Cc1cn2cc(-c3cc4ccc(N5CCNC(C)(C)C5)cc4oc3=O)nc2c(C)n1 [Compound 736, 3-(6,8-dimethylimidazo[1,2-a]pyrazin-2-yl)-7-(3,3-dimethylpiperazin-1-yl)-2H-chromen-2-one]
EC1.5x (concentration giving 1.5-fold Smn protein increase) (Smn protein): < 300 nM
maximum fold (Fold) increase of Smn protein (Smn protein): ***** (fold increase >1.65)
EC (1.5-fold) [1, 2]: < 0.1 µM

C[C@@H]1CN(c2ccc3cc(-c4cn5ccccc5n4)c(=O)oc3c2)C[C@H](C)N1C [Compound 140, 3-(imidazo[1,2-a]pyridin-2-yl)-7-[(3R,5S)-3,4,5-trimethylpiperazin-1-yl]-2H-chromen-2-one]
maximum fold (Fold) increase of Smn protein (Smn protein): ** (fold increase between >1.2 and ≤1.35)
EC (1.5-fold) [1, 2]: 0.3 to 1 µM
